Assay [1] addresses T1, RNA-dependent DNA polymerase activity of HIV reverse transcriptase (Human immunodeficiency virus type 1 group M subtype B, UniProt P04585).
T1 construct: made in house
Briefly: RNA-dependent DNA polymerase activity assay of HIV reverse transcriptase. It counts as biochemical, HIV-1. The note with it: 10 μM inhibitor concentration, activity with analog / without analog x 100. How it is done:
In separate, representative assays, mappicine analogs were tested for their ability to inhibit the RNA-dependent DNA polymerase activity of HIV reverse transcriptase and for their ability to inhibit the RNase H activity of HIV reverse transcriptase. The assay for RNA-dependent DNA polymerase activity is discussed in Borkow, G. et al., “Inhibition of the Ribonuclease H and DNA Polymerase Activities of HIV-1 Reverse Transcriptase by N-(4-tert-Butylbenzoyl)-2-hydroxy-1-naphthaldehyde Hydrazone,” Biochemistry 1997, 36, 3179-3185, a copy of which is attached hereto, and the disclosure of which is incorporated herein by reference. Assays were carried out in the absence and in the presence of mappicine analogs (10 μM final concentration). The results are reported as % residual activity, which is the RNA-dependent DNA polymerase activity of the enzyme in the presence of the mappicine analog divided by the RNA-dependent activity of the enzyme in the absence of the mappicine analog, multiplied by 100.

Assay [2] has as its target RNase H activity of HIV reverse transcriptase (Human immunodeficiency virus type 1 group M subtype B, UniProt P04585). Description: Fluorescence (FRET)-based RNase H activity assay of HIV reverse transcriptase. Type of assay: biochemical, HIV-1. Also noted: final concentration of 2.5 nM of the p51/p66 RT heterodimer in the assay; made in house. The note with it: 10 μM inhibitor concentration, activity with analog / without analog x 100. How it is done:
Recently, a fluorescence-based assay to perform preliminary screens in search of HIV RNase H inhibitors has been developed. The assay, which is carried out in 96-well microplates and is adaptable to robotics, is the first high-throughput screen for RNase H and is described in further detail in the Experimental section. HIV-1 RT and human RNase H were cloned, and thus comparative analysis of inhibitor action could be conducted simultaneously.
The assay for RNase H activity of HIV reverse transcriptase was the fluorescence-based assay described in detail in the Experimental section and discussed in U.S. Provisional Patent Application Serial No. 60/318,359. Assays were carried out in the absence and in the presence of mappicine analogs (10 μM final concentration). The results are reported as % residual activity, which is the RNase H activity of the enzyme in the presence of the mappicine analog divided by the RNase H activity of the enzyme in the absence of the mappicine analog, multiplied by 100. Alternatively, the results are reported as % inhibition, which is calculated as the ratio of the RNase H activity of the enzyme in the presence of the mappicine analog to the enzyme activity in the absence of the mappicine analog, multiplied by 100, and then subtracting this number from 100.
Assay for Ribonuclease H Activity Based on Fluorescence Resonance Energy Transfer (FRET)
Preparation of the Fluorophore-RNA/Quencher-DNA Hybrid Duplex Substrate.
The RNA/DNA hybrid duplex substrate for use in the assay comprises an RNA oligonucleotide of sequence 5′-GAU CUG AGC CUG GGA GCU-3′, modified at the 3′-end with Aminolink-2 and derivatized with fluorescein isothiocyanate, to provide a modified RNA oligonucleotide of the sequence 5′-GAU CUG AGC CUG GGA GCU-fluorescein-3′, annealed to a complementary DNA oligonucleotide of the sequence 5′-AGC TCC CAG GCT CAG ATC-3′ modified at the 5′-end with Aminolink-2 and derivatized with the FRET acceptor DABCYL succinimidyl ester, to provide a modified DNA oligonucleotide of the sequence 5′-DABCYL-AGC TCC CAG GCT CAG ATC-3′.
To prepare the 3′-fluorescein-RNA/5′-DABCYL-DNA hybrid duplex substrate, a known amount of 3′-fluorescein-RNA was dissolved in 20 mM Tris buffer (pH 8.0, 37° C.) to provide a final concentration of 5 μM. Two equivalents of the 5′-DABCYL-DNA oligonucleotide were added, and the mixture was heated to 90° C. for 5 min and cooled slowly to room temperature to allow duplex formation. The positioning of the fluorescein donor at the 3′-end of the RNA oligonucleotide and the DABCYL acceptor at the 5′-end of the DNA oligonucleotide provides a very close proximity of the donor and acceptor that results in a very intense quenching of the fluorescein emission in the intact RNA/DNA hybrid duplex substrate due to the spectral overlap of the fluorescence emission of fluorescein with the absorption spectrum of DABCYL. In addition, DABCYL is non-fluorescent, and thus cannot contribute any light emission. Both of these factors result in a very low background and provide a high signal-to-noise in the assay measurements. The ratio of the donor fluorescence in the absence and in the presence of its quencher is approximately fifteen-fold.
Microplate Assay Protocol for the Measurement of RNase H Activity Using the RNA/DNA Hybrid Duplex Substrate.
Reaction assay mixtures contained 5 μl of a stock solution of 2.5 μM RNA/DNA hybrid duplex substrate added to 85 μl of assay buffer (50 mM Tris, pH 8.0, 37° C., containing 60 mM KCl and 2.5 mM MgCl2), prepared in the wells of a 96-well fluorescence microtiter plate, and warmed to 37° C. using the temperature control of the SpectraMax Gemini XS microplate spectrofluorometer (Molecular Devices). Reactions were started by the addition of 5 μl of a solution of recombinant HIV-1 reverse transcriptase (usually providing a final concentration of 2.5 nM of the p51/p66 RT heterodimer in the assay), and mixing using the automatic mixing function of the microplate spectrofluorometer. […]

With `Cc1ccc2nc3c(c([Si](C)(C)C)c2c1)Cn1c-3cc(C(O)Cc2ccccc2)c(C)c1=O` (racemic) [5Cε], the “Residual activity (%) Polymerase” value in assay [1] stood at 87%. In addition, the “Residual activity (%) RNase H” value in assay [2] stood at 93%.

For the compound `CCC(O)c1cc2n(c(=O)c1C)Cc1c-2nc2ccc(OC)cc2c1[Si](C)(C)C` (racemic) [5Dα], in assay [1], the “Residual activity (%) Polymerase” value was 88%. Also, the “Residual activity (%) RNase H” value in assay [2] was found to be 78%.

Consider `COc1ccc2nc3c(c([Si](C)(C)C)c2c1)Cn1c-3cc(C(O)Cc2ccccc2)c(C)c1=O` (racemic) [5Dε], for which, in assay [1], the “Residual activity (%) Polymerase” value turned out to be 48%. The “Residual activity (%) RNase H” value in assay [2] is 70%.

Regarding `CCCCCCc1c2c(nc3ccccc13)-c1cc(C(O)CC)c(C)c(=O)n1C2` (racemic) [8Aα], the “Residual activity (%) Polymerase” value in assay [1] turned out to be 42%. In addition, the “Residual activity (%) RNase H” value in assay [2] came out at 83%.

Take `CCCCCCc1c2c(nc3ccccc13)-c1cc(C(O)Cc3ccccc3)c(C)c(=O)n1C2` (racemic) [8Aε]: the “Residual activity (%) Polymerase” value in assay [1] is 58%. For the same compound, the “Residual activity (%) RNase H” value in assay [2] is reported as 71%.

With `CCCCCCc1c2c(nc3ccc(F)cc13)-c1cc(C(O)C(C)(C)C)c(C)c(=O)n1C2` (racemic) [8Bβ], the “Residual activity (%) Polymerase” value in assay [1] turned out to be 50%. Also, the “Residual activity (%) RNase H” value in assay [2] amounted to 97%.

Take `CCCCCCc1c2c(nc3ccc(F)cc13)-c1cc(C(O)Cc3ccccc3)c(C)c(=O)n1C2` (racemic) [8Bε]: the “Residual activity (%) Polymerase” value in assay [1] turned out to be 92%. Besides, in assay [2], the “Residual activity (%) RNase H” value turned out to be 84%.

On to `CCCCCCc1c2c(nc3ccc(C)cc13)-c1cc(C(O)CC)c(C)c(=O)n1C2` (racemic) [8Cα], for which the “Residual activity (%) Polymerase” value in assay [1] is reported as 84%. In assay [2], the “Residual activity (%) RNase H” value is on record as 65%.

For the compound `CCCCCCc1c2c(nc3ccc(C)cc13)-c1cc(C(O)C(C)(C)C)c(C)c(=O)n1C2` (racemic) [8Cβ], the “Residual activity (%) Polymerase” value in assay [1] is 111%. The “Residual activity (%) RNase H” value in assay [2] was determined as 93%.

As for `CCCCCCc1c2c(nc3ccc(C)cc13)-c1cc(C(O)Cc3ccccc3)c(C)c(=O)n1C2` (racemic) [8Cε], the “Residual activity (%) Polymerase” value in assay [1] is listed as 76%. The “Residual activity (%) RNase H” value in assay [2] was 76%.

For the compound `CCCCCCc1c2c(nc3ccc(OC)cc13)-c1cc(C(O)CC)c(C)c(=O)n1C2` (racemic) [8Dα], the “Residual activity (%) Polymerase” value in assay [1] was 85%. The “Residual activity (%) RNase H” value in assay [2] was 66%.

Turning to `CCCCCCc1c2c(nc3ccc(OC)cc13)-c1cc(C(O)C(C)(C)C)c(C)c(=O)n1C2` (racemic) [8Dβ], the “Residual activity (%) Polymerase” value in assay [1] worked out at 68%. In addition, the “Residual activity (%) RNase H” value in assay [2] was found to be 67%.

On to `CCCCCCc1c2c(nc3ccc(OC)cc13)-c1cc(C(O)CCC3CCCCC3)c(C)c(=O)n1C2` (racemic) [8Dδ], for which the “Residual activity (%) Polymerase” value in assay [1] turned out to be 81%. In addition, the “Residual activity (%) RNase H” value in assay [2] was 63%.

On to `CCC(O)c1cc2n(c(=O)c1C)Cc1c-2nc2ccccc2c1[Si](C)(C)C` (racemic) [AG 1M], for which the “Residual activity (%) Polymerase” value in assay [1] (10 µM) turned out to be 89%. For the same compound, the “Residual activity (%) RNase H” value in assay [2] (10 µM) is 73%.

As for `CCc1c2c(nc3ccccc13)-c1cc(C(O)CC)c(C)c(=O)n1C2` (racemic) [AG 4M], in assay [1], the “Residual activity (%) Polymerase” value was 100%. Further, in assay [2], the “Residual activity (%) RNase H” value was 74%.

As for `CCC(=O)c1cc2n(c(=O)c1C)Cc1c-2nc2ccccc2c1-c1ccccc1` [3Aακ], the “Residual activity (%) Polymerase” value in assay [1] amounted to 64%. The “Residual activity (%) RNase H” value in assay [2] was determined as 87%.

As for `Cc1c(C(=O)C(C)(C)C)cc2n(c1=O)Cc1c-2nc2ccccc2c1-c1ccccc1` [3Aβκ], in assay [1], the “Residual activity (%) Polymerase” value is 64%. Moreover, the “Residual activity (%) RNase H” value in assay [2] came to 94%.

With `Cc1c(C(=O)CCC2CCCCC2)cc2n(c1=O)Cc1c-2nc2ccccc2c1-c1ccccc1` [3Aδκ], the “Residual activity (%) Polymerase” value in assay [1] amounted to 66%. For the same compound, the “Residual activity (%) RNase H” value in assay [2] turned out to be 73%.

Consider `Cc1c(C(O)Cc2ccccc2)cc2n(c1=O)Cc1c-2nc2ccccc2c1-c1ccccc1` (stereo not shown) [3Aε], for which the “Residual activity (%) Polymerase” value in assay [1] is on record as 34%. Also, in assay [2], the “Residual activity (%) RNase H” value is given as 99%.

For `CCC(=O)c1cc2n(c(=O)c1C)Cc1c-2nc2ccc(F)cc2c1-c1ccccc1` [3Bακ], the “Residual activity (%) Polymerase” value in assay [1] is recorded as 100%. Further, in assay [2], the “Residual activity (%) RNase H” value is given as 94%.

As to `Cc1c(C(=O)C(C)(C)C)cc2n(c1=O)Cc1c-2nc2ccc(F)cc2c1-c1ccccc1` [3Bβκ], in assay [1], the “Residual activity (%) Polymerase” value came to 61%. Also, in assay [2], the “Residual activity (%) RNase H” value is 95%.

On to `Cc1c(C(=O)CCC2CCCCC2)cc2n(c1=O)Cc1c-2nc2ccc(F)cc2c1-c1ccccc1` [3Bδκ], for which, in assay [1], the “Residual activity (%) Polymerase” value came out at 59%. Moreover, the “Residual activity (%) RNase H” value in assay [2] came to 93%.

As for `CCC(=O)c1cc2n(c(=O)c1C)Cc1c-2nc2ccc(C)cc2c1-c1ccccc1` [3Cακ], the “Residual activity (%) Polymerase” value in assay [1] came out at 71%. The “Residual activity (%) RNase H” value in assay [2] is reported as 99%.

On to `Cc1ccc2nc3c(c(-c4ccccc4)c2c1)Cn1c-3cc(C(=O)C(C)(C)C)c(C)c1=O` [3Cβκ], for which the “Residual activity (%) Polymerase” value in assay [1] is 63%. In assay [2], the “Residual activity (%) RNase H” value amounted to 96%.

Take `Cc1ccc2nc3c(c(-c4ccccc4)c2c1)Cn1c-3cc(C(O)CCC2CCCCC2)c(C)c1=O` (stereo not shown) [3Cδ]: in assay [1], the “Residual activity (%) Polymerase” value was 74%. Further, the “Residual activity (%) RNase H” value in assay [2] stood at 93%.

With `Cc1ccc2nc3c(c(-c4ccccc4)c2c1)Cn1c-3cc(C(=O)CCC2CCCCC2)c(C)c1=O` [3Cδκ], the “Residual activity (%) Polymerase” value in assay [1] is 65%. In addition, the “Residual activity (%) RNase H” value in assay [2] was 93%.

Take `CCC(=O)c1cc2n(c(=O)c1C)Cc1c-2nc2ccc(OC)cc2c1-c1ccccc1` [3Dακ]: the “Residual activity (%) Polymerase” value in assay [1] was 76%. Also, in assay [2], the “Residual activity (%) RNase H” value was found to be 104%.

On to `COc1ccc2nc3c(c(-c4ccccc4)c2c1)Cn1c-3cc(C(O)C(C)(C)C)c(C)c1=O` (stereo not shown) [3Dβ], for which the “Residual activity (%) Polymerase” value in assay [1] was 85%. In addition, the “Residual activity (%) RNase H” value in assay [2] came out at 70%.

For the compound `COc1ccc2nc3c(c(-c4ccccc4)c2c1)Cn1c-3cc(C(=O)CCC2CCCCC2)c(C)c1=O` [3Dδκ], the “Residual activity (%) Polymerase” value in assay [1] is reported as 81%. The “Residual activity (%) RNase H” value in assay [2] was 97%.

In the case of `COc1ccc2nc3c(c(-c4ccccc4)c2c1)Cn1c-3cc(C(=O)Cc2ccccc2)c(C)c1=O` [3Dεκ], the “Residual activity (%) Polymerase” value in assay [1] was found to be 73%. Also, the “Residual activity (%) RNase H” value in assay [2] is listed as 88%.

Consider `CCC(=O)c1cc2n(c(=O)c1C)Cc1c-2nc2ccccc2c1[Si](C)(C)C(C)(C)C` [4Aακ], for which, in assay [1], the “Residual activity (%) Polymerase” value is recorded as 43%. For the same compound, in assay [2], the “Residual activity (%) RNase H” value turned out to be 76%.

Take `Cc1c(C(=O)C(C)(C)C)cc2n(c1=O)Cc1c-2nc2ccccc2c1[Si](C)(C)C(C)(C)C` [4Aβκ]: the “Residual activity (%) Polymerase” value in assay [1] is listed as 79%. In assay [2], the “Residual activity (%) RNase H” value is listed as 70%.

Values taken from patent US20040058948A1, “Mappicine analogs, methods of inhibiting retroviral reverse transcriptase and methods of treating retroviruses” (priority 2002, published 2004).
